Laboratory results reported in PubChem BioAssay (NCI).
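A five-concentration, 48-hour dose response in 96-well plates underlies each endpoint, interpolated linearly between surrounding concentrations. TGI: total growth inhibition.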

Key:
Assay in all cases: growth of human tumour cells (NCI), 48 h
NCI-H23 lung = tested on: NCI-H23 lung
PC-3 prostate = tested on: PC-3 prostate
OVCAR-8 ovarian = tested on: OVCAR-8 ovarian
CCRF-CEM leukemia = tested on: CCRF-CEM leukemia
TK-10 renal = tested on: TK-10 renal
MDA-N = tested on: MDA-N
SNB-75 CNS = tested on: SNB-75 CNS
NCI/ADR-RES ovarian = tested on: NCI/ADR-RES ovarian
OVCAR-3 ovarian = tested on: OVCAR-3 ovarian
MOLT-4 leukemia = tested on: MOLT-4 leukemia
SF-268 CNS = tested on: SF-268 CNS
U251 CNS = tested on: U251 CNS
A498 renal = tested on: A498 renal
SK-MEL-2 melanoma = tested on: SK-MEL-2 melanoma
HOP-92 NSCLC = tested on: HOP-92 NSCLC
SN12C renal = tested on: SN12C renal
COLO 205 colon = tested on: COLO 205 colon
EKVX NSCLC = tested on: EKVX NSCLC
UACC-257 melanoma = tested on: UACC-257 melanoma
MCF7 breast = tested on: MCF7 breast
RXF 393 renal = tested on: RXF 393 renal
SF-295 CNS = tested on: SF-295 CNS
SF-539 CNS = tested on: SF-539 CNS
SW-620 colon = tested on: SW-620 colon
NCI-H460 lung = tested on: NCI-H460 lung
A549 NSCLC = tested on: A549 NSCLC
RPMI-8226 leukemia = tested on: RPMI-8226 leukemia
MALME-3M melanoma = tested on: MALME-3M melanoma
ACHN renal = tested on: ACHN renal
SK-OV-3 ovarian = tested on: SK-OV-3 ovarian
NCI-H522 lung = tested on: NCI-H522 lung
OVCAR-4 ovarian = tested on: OVCAR-4 ovarian
M14 melanoma = tested on: M14 melanoma
786-0 renal = tested on: 786-0 renal
BT-549 breast = tested on: BT-549 breast
KM12 colon = tested on: KM12 colon
T-47D breast = tested on: T-47D breast
HCT-116 colon = tested on: HCT-116 colon
SR leukemia = tested on: SR leukemia
UACC-62 melanoma = tested on: UACC-62 melanoma
LOX IMVI melanoma = tested on: LOX IMVI melanoma
NCI-H226 lung = tested on: NCI-H226 lung
IGROV1 ovarian = tested on: IGROV1 ovarian
K-562 leukemia = tested on: K-562 leukemia
HL-60(TB) leukemia = tested on: HL-60(TB) leukemia
SNB-19 CNS = tested on: SNB-19 CNS
HCC-2998 colon = tested on: HCC-2998 colon
HOP-62 NSCLC = tested on: HOP-62 NSCLC
CAKI-1 renal = tested on: CAKI-1 renal
HCT-15 colon = tested on: HCT-15 colon
OVCAR-5 ovarian = tested on: OVCAR-5 ovarian
HS 578T breast = tested on: HS 578T breast
MDA-MB-435 = tested on: MDA-MB-435
SK-MEL-5 melanoma = tested on: SK-MEL-5 melanoma
UO-31 renal = tested on: UO-31 renal
DU-145 prostate = tested on: DU-145 prostate
HT29 colon = tested on: HT29 colon
SK-MEL-28 melanoma = tested on: SK-MEL-28 melanoma
MDA-MB-231 breast = tested on: MDA-MB-231 breast

Structure (SMILES): COC(=O)C1([C@@H]2C[C@@H](O)[C@]3(C)CC/C=C(\C)CCC[C@H](C)[C@H](O)[C@@H]2O3)CC1
- TGI (NCI-H23 lung): > 100 µM
- TGI (PC-3 prostate): > 100 µM
- TGI (OVCAR-8 ovarian): > 100 µM
- TGI (CCRF-CEM leukemia): > 100 µM
- TGI (TK-10 renal): > 100 µM
- TGI (MDA-N): > 100 µM
- TGI (SNB-75 CNS): 17.8 µM
- TGI (NCI/ADR-RES ovarian): > 100 µM
- TGI (OVCAR-3 ovarian): > 100 µM
- TGI (MOLT-4 leukemia): 88.8 µM
- TGI (SF-268 CNS): > 100 µM
- TGI (U251 CNS): > 100 µM
- TGI (A498 renal): > 100 µM
- TGI (SK-MEL-2 melanoma): > 100 µM
- TGI (HOP-92 NSCLC): > 100 µM
- TGI (SN12C renal): > 100 µM
- TGI (COLO 205 colon): > 100 µM
- TGI (EKVX NSCLC): > 100 µM
- TGI (UACC-257 melanoma): > 100 µM
- TGI (MCF7 breast): > 100 µM
- TGI (RXF 393 renal): > 100 µM
- TGI (SF-295 CNS): > 100 µM
- TGI (SF-539 CNS): > 100 µM
- TGI (SW-620 colon): > 100 µM
- TGI (NCI-H460 lung): > 100 µM
- TGI (A549 NSCLC): > 100 µM
- TGI (RPMI-8226 leukemia): > 100 µM
- TGI (MALME-3M melanoma): > 100 µM
- TGI (ACHN renal): > 100 µM
- TGI (SK-OV-3 ovarian): > 100 µM
- TGI (NCI-H522 lung): > 100 µM
- TGI (OVCAR-4 ovarian): > 100 µM
- TGI (M14 melanoma): > 100 µM
- TGI (786-0 renal): > 100 µM
- TGI (BT-549 breast): > 100 µM
- TGI (KM12 colon): > 100 µM
- TGI (T-47D breast): > 100 µM
- TGI (HCT-116 colon): > 100 µM
- TGI (SR leukemia): 95.3 µM
- TGI (UACC-62 melanoma): > 100 µM
- TGI (LOX IMVI melanoma): > 100 µM
- TGI (NCI-H226 lung): 69.2 µM
- TGI (IGROV1 ovarian): > 100 µM
- TGI (K-562 leukemia): > 100 µM
- TGI (HL-60(TB) leukemia): > 100 µM
- TGI (SNB-19 CNS): > 100 µM
- TGI (HCC-2998 colon): > 100 µM
- TGI (HOP-62 NSCLC): > 100 µM
- TGI (CAKI-1 renal): > 100 µM
- TGI (HCT-15 colon): > 100 µM
- TGI (OVCAR-5 ovarian): > 100 µM
- TGI (HS 578T breast): > 100 µM
- TGI (MDA-MB-435): > 100 µM
- TGI (SK-MEL-5 melanoma): > 100 µM
- TGI (UO-31 renal): 60.3 µM
- TGI (DU-145 prostate): > 100 µM
- TGI (HT29 colon): > 100 µM
- TGI (SK-MEL-28 melanoma): > 100 µM
- TGI (MDA-MB-231 breast): > 100 µM
